{"source": "patent US12133912B2", "about": "“Stable pharmaceutical compositions of succinylcholine chloride” (Slayback Pharma LLC., priority 2021, dated 2024)", "origin": "cited, not measured here", "key": {"[1]": {"molecular_target": "T1, cholinergic receptors of the motor end plate (Homo sapiens, UniProt P02708+Q04844+Q07001)", "T1 construct": "Succinylcholine combines with the cholinergic receptors of the motor end plate to produce depolarization; from tissue; host or cells: motor end plate of skeletal muscle, in vivo after intravenous administration", "T1 sequence (P02708 21-457)": "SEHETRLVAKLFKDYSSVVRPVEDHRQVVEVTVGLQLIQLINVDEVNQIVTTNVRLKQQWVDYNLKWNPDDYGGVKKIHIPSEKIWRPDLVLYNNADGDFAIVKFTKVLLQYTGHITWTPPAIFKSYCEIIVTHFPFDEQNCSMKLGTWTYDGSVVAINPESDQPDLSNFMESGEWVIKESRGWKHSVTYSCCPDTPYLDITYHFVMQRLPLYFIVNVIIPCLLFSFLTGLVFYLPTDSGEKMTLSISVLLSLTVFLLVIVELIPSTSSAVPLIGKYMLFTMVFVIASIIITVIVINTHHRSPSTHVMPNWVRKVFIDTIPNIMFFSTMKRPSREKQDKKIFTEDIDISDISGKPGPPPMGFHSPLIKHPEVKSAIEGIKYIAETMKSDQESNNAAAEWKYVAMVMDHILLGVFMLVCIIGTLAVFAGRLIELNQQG", "T1 sequence (Q07001 22-517)": "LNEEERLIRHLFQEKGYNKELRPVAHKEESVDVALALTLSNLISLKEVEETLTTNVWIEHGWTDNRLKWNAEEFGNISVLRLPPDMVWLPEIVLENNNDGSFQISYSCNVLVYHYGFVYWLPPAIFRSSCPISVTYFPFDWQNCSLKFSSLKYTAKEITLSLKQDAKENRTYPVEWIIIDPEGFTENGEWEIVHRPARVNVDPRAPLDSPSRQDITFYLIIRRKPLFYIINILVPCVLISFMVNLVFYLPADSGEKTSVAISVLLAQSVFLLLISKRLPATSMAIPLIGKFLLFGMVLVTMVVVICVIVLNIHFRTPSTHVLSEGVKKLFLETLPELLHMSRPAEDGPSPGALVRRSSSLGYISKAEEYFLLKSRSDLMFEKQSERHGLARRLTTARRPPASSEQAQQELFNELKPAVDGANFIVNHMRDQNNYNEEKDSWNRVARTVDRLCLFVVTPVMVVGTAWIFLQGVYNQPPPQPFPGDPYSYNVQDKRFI", "T1 sequence (Q04844 21-493)": "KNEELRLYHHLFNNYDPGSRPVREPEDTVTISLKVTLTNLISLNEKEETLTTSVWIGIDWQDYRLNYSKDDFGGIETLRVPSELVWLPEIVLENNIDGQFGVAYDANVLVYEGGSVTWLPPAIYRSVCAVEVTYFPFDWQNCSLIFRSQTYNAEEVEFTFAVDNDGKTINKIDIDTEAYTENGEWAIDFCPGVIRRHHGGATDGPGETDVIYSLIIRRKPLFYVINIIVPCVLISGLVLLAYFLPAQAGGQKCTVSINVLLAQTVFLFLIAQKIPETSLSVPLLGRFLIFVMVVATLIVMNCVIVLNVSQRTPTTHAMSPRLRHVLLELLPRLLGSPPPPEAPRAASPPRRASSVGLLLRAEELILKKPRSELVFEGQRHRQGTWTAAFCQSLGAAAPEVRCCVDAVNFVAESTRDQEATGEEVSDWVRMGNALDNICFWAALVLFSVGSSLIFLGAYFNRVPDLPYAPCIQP", "T1 sequence (P11230 24-501 partner)": "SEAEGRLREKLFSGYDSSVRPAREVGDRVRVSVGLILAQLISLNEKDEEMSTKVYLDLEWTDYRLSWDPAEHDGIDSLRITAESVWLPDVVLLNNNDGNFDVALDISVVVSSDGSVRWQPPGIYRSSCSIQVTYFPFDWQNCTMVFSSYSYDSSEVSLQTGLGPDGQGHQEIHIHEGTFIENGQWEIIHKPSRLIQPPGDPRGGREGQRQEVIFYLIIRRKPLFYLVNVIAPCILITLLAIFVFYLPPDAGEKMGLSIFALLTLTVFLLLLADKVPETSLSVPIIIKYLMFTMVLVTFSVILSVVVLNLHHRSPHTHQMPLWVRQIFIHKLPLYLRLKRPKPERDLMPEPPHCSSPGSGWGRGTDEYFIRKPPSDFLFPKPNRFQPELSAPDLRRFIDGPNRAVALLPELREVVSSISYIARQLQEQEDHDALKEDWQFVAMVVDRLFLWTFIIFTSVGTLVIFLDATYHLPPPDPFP", "conditions": "after intravenous administration"}}, "data": [{"smiles": "C[N+](C)(C)CCOC(=O)CCC(=O)OCC[N+](C)(C)C", "note": "[Succinylcholine chloride, 2,2′-[(1,4-dioxo-1,4-butanediyl)bis(oxy)]bis[N,N,Ntrimethylethanaminium] dichloride]", "values": [{"measurement": "Onset of flaccid paralysis", "setting": "[1]", "value": "less than one"}, {"measurement": "Solubility in alcohol", "setting": "alcohol", "value": "slightly soluble"}, {"measurement": "Solubility in ether", "setting": "ether", "value": "practically insoluble"}, {"measurement": "Solubility in water", "setting": "water", "value": "freely soluble"}]}]}
